Experimental data published in the supplement of paper PMC11208160.

test: recombinant barcode read abundance after kanamycin selection (control-corrected) (log10(CPM+1)); higher = more efficient recombination; sequences stand for … in AGTGCAGAGAAAATCGGCCAGTTTTCTCTGCCTGCAGTCCGCATGCCGT…AGATTTATGCAGCGGACTGCCTTTCTCCCAAAGTGATAAACCGGACAGTATCATGGACCGGTTTTCCCGGTAATCCGTATTTGCAAGGTTGGTTTCACT; site = the 11-nt target
In short: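 For this pooled screen, each oligo contained a promoter, a target, a barcode and the J23119-driven first 104 bases of the bridge RNA. Gibson cloning placed it into a vector supplying the remaining 73 bp and a T7-inducible recombinase, and the pool was co-electroporated into E. coli with a donor plasmid. Recombination efficiency is derived from barcode counts per million at recombinant junctions after averaging and control correction, and is expressed on a log scale as log10(CPM+1), with selection on chloramphenicol/ampicillin/kanamycin plus 0.1 mM IPTG against a chloramphenicol/ampicillin LB agar control.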
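Also: IS621 recombinase and bridge RNA in Escherichia coli cells.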

Sequence	recombinant barcode read abundance (log10)
GACTTTCCTTGGGTTCTAACCTGTTGCAT (site GACTTCCCTAT)	0.272
GACTTTCCTTGGGTTCTAACCTGTTGCAT (site GACTTGCCTAT)	0.0607
GACTTTCCTTGGGTTCTAACCTGTTGCAT (site GACTTTCCTAT)	0.101
GAGAACACTTGGGTTCTAACCTGTTGCCT (site AAGAACACTAG)	1.09
GAGAACACTTGGGTTCTAACCTGTTGCCT (site CAGAACACTAG)	0.439
GAGAACACTTGGGTTCTAACCTGTTGCCT (site GAGAACACTAG)	2.01
GAGAACACTTGGGTTCTAACCTGTTGCCT (site TAGAACACTAG)	0.852
GAGAAGCCTTGGGTTCTAACCTGTTGCCT (site AAGAAGCCTAG)	1.17
GAGAAGCCTTGGGTTCTAACCTGTTGCCT (site CAGAAGCCTAG)	0.409
GAGAAGCCTTGGGTTCTAACCTGTTGCCT (site GAGAAGCCTAG)	2.12
GAGAAGCCTTGGGTTCTAACCTGTTGCCT (site TAGAAGCCTAG)	0.639
GAGAGAGCTTGGGTTCTAACCTGTTGCAT (site GAGAGAGCTAT)	1.41
GAGAGAGCTTGGGTTCTAACCTGTTGCAT (site GAGCGAGCTAT)	0.193
GAGAGAGCTTGGGTTCTAACCTGTTGCAT (site GAGGGAGCTAT)	0.0621
GAGAGAGCTTGGGTTCTAACCTGTTGCAT (site GAGTGAGCTAT)	0.14
GAGAGGTCTTGGGTTCTAACCTGTTGCCT (site GAGAGGTCTAA)	0.298
GAGAGGTCTTGGGTTCTAACCTGTTGCCT (site GAGAGGTCTAC)	0.0681
GAGAGGTCTTGGGTTCTAACCTGTTGCCT (site GAGAGGTCTAG)	1.56

Sequence	recombinant barcode read abundance (log10)
GAGAGGTCTTGGGTTCTAACCTGTTGCCT (site GAGAGGTCTAT)	0.203
GAGATGTCTTGGGTTCTAACCTGTTGCCT (site GAGATGTCTAG)	2.43
GAGATGTCTTGGGTTCTAACCTGTTGCCT (site GCGATGTCTAG)	0.147
GAGATGTCTTGGGTTCTAACCTGTTGCCT (site GGGATGTCTAG)	0.266
GAGATGTCTTGGGTTCTAACCTGTTGCCT (site GTGATGTCTAG)	0.577
GAGCACCCTTGGGTTCTAACCTGTTGCCA (site GAGCACCCTTG)	1.77
GAGCACCCTTGGGTTCTAACCTGTTGCCA (site GAGCTCACTTG)	0.0464
GAGCAGTCTTGGGTTCTAACCTGTTGCCT (site GAGAAGTCTAG)	0
GAGCAGTCTTGGGTTCTAACCTGTTGCCT (site GAGCAGTCTAG)	2.4
GAGCAGTCTTGGGTTCTAACCTGTTGCCT (site GAGGAGTCTAG)	0.117
GAGCAGTCTTGGGTTCTAACCTGTTGCCT (site GAGTAGTCTAG)	0.214
GAGCCACCTTGGGTTCTAACCTGTTGCTG (site GAGCCACCTCA)	1.58
GAGCCACCTTGGGTTCTAACCTGTTGCTG (site GAGCCGCCTCG)	0.104
GAGCCGACTTGGGTTCTAACCTGTTGCAG (site GAGCCGACTCT)	2.25
GAGCCGACTTGGGTTCTAACCTGTTGCAG (site TAGCCGGCTCT)	0.0779
GAGCCGACTTGGGTTCTAACCTGTTGCCT (site GAGCAGACTAG)	0.288
GAGCCGACTTGGGTTCTAACCTGTTGCCT (site GAGCCGACTAG)	1.56
GAGCCGACTTGGGTTCTAACCTGTTGCCT (site GAGCGGACTAG)	0.274
